US20040023893A1, “Novel coumarin derivatives and the salts thereof, a process for the preparation thereof and their use in the pharmaceutical field” (priority 2000, published 2004)
Read-outs that look alike come from different tables or passages of the source.

Key:
[1] = tested on: nitrite-nitrate release; assay: Inhibition of the release of nitrite-nitrate in rat plasma after LPS; format: in vivo; details: 25 mg/Kg o.s. 30 minutes before and 3 hours after LPS 0.1 mg/Kg i.v., blood 8 hours after LPS, Griess reagent, saline controls = 100%
Protocol: Test 4—Inhibition of the Release of Nitrite-Nitrate in Rat Plasma
The release of nitrite-nitrite was measured with Griess reagent in blood samples taken 8 hours after the administration of LPS (0.1 mg/Kg) i.v.
The animals were treated with the compounds by o.s. (25 mg/Kg) 30 minutes before and 3 hours after LPS. The control animals received saline instead of the test compounds. The values for the release of nitrite-nitrate were made to correspond to 100%.

[2] = tested on: Male CD-1 mice; assay: Toxicity after a single intravenous administration; format: in vivo
Source text: (§1) Test 7—Toxicity After a Single Intravenous Administration
(§2) Male CD-1 mice were used to assess the maximum non-lethal does (MNLD—the highest does at which no cases of mortality are observed) and the maximum tolerated does (MTD—does at which no evident or marked signs of tocicity or altered behaviour are observed).

[3] = tested on: TNF release, human blood; assay: Inhibition of TNF release after stimulation with LPS in vitro, whole blood (L929 mortality readout); format: cell-based; details: heparinised whole blood stimulated with LPS; concentration (± standard error) inhibiting L929 fibroblast mortality by 50%; read-out: Human blood CI50
Protocol: (§3) Test 1—Inhibition of TNF Release After Stimulation with LPS in vitro
(§4) The test compound was added to the culture medium in a murine macrophage line (J774) or to whole blood anti-coagulated with heparin. The cells were then stimulated with bacterial lipopolysacccharide. After incubation at 37° C. for a suitable length of time, the supernatant was removed from the culture and incubated with a line of murine fibroblasts (L929), sensitive to TNF. The quantity of TNF released after stimulation with LPS is measured by comparing mortality of the L929 cells with that of the controls. Table 1 reports for the single compounds the concentration (±standard error) able to inhibit fibroblast mortality (L929) by 50%.

[4] = tested on: carrageenin-induced oedema in rat paw; assay: Carrageenin-induced oedema in rat paw; format: in vivo; details: 2 mg/Kg i.v. 5 minutes before 1.5 mg carrageenin intraplantar, paws weighed 3 hours later, saline controls = 100%
Protocol: Test 3—Reduction in Inflammation in Carrageenin-Induced Oedema in Rat Paw
A model of acute inflammation induced by intraplantar injection of 1.5 mg of carrageenin in rat paw was used. Administration of the compounds (2 mg/Kg) was by the intravenous route 5 minutes before oedema was induced: 3 hours later the animals were sacrificed and their paws were weighed as an indication of inflammation. The control animals received saline instead of the test compounds. The weight of the paws of the control animals was taken to correspond to 100% on the inflammation index.

[5] = tested on: platelet aggregation, human whole blood; assay: Inhibition of collagen-induced platelet aggregation in human whole blood; format: cell-based; details: collagen 1 μg/ml, 1 minute preincubation, count 5 minutes after collagen, vs saline, read-out: CI50 (platelet aggregation)
Protocol: Test 6—Inhibition of Collagen-Induced Platelet Aggregation in Human Whole Blood
The aggregation event was analysed by counting the single non-aggregated platelets with a cell counter 5 minutes after adding collagen (1 μg/ml). In these working conditions, collagen induces platelet aggregation of over 80%. The test compounds or saline as control were preincubated for 1 minute before the collagen was added.
Table 6 reports the concentrations that inhibit platelet aggregation by 50% compared to saline.

[6] = tested on: TNF release, murine macrophage line (J774); assay: Inhibition of TNF release after stimulation with LPS in vitro, J774 macrophages (L929 mortality readout); format: cell-based; details: J774 macrophages stimulated with LPS, concentration (± standard error) inhibiting L929 fibroblast mortality by 50%, read-out: J774 CI50
Protocol: as §3, §4

[7] = tested on: Salmonella typhimurium (TA 98 and TA 100) and Escherichia coli (WP2 pKM101 and WP2 uvrA pKM1091); assay: Mutagenesis (Mini-Ames test); format: cell-based; details: with and without microsomal liver enzyme preparation
Protocol: Test 8—Mutagenesis (Mini-Ames Test)
The Mini-Ames test is a version of the traditional Ames test which involves the incubation of bacterial cells on 35-mm dishes instead of 100-mm dishes, and it requires a smaller quantity of product while maintaining the reliability of the result.
The test is conducted on two strains of Salmonella typhimurium requiring histidine (TA 98 and TA 100) and two strains of Escherichia coli requiring tryptophan (WP2 pKM101 and WP2 uvrA pKM1091).
The bacterial cells were exposed to different concentrations of the test compounds in the presence and absence of a microsomal liver enzyme preparation, to reveal any possible metabolite activity.
Mutagenic activity was determined as the ability of the test compound to induce a significant increase in the number of mutant clones compared to those developed spontaneously in the cultures with the control vehicle.

[8] = tested on: TNF; assay: Inhibition of the release of TNF following stimulation with LPS in vivo; details: rat, blood 75 minutes after LPS, ELISA, vs saline controls
Protocol: (§5) Test 2—Inhibition of the Release of TNF and IL-β Following Stimulation with LPS in vivo
(§6) Conscious rats were injected with a dose of LPS, which is able to stimulate the release of TNF and IL-1β, having first received an intravenous administration (15 minutes beforehand) of the test compound at a dose of 0.5 mg/Kg or 2 mg/Kg. Blood levels of TNF and IL-1β were measured by the ELISA method on blood samples taken 75 minutes and 120 minutes after LPS respectively.
(§7) Table 2 below reports the percent of inhibition of each product compared to that of the controls treated with saline.

[9] = tested on: IL-1β; assay: Inhibition of the release of IL-1β following stimulation with LPS in vivo; details: rat, blood 120 minutes after LPS, ELISA, vs saline controls
Protocol: as §5, §6, §7

[10] = tested on: superoxide anions, human whole blood; assay: Inhibition of superoxide anion formation induced by f-MLP in human whole blood; format: cell-based; details: 20 minutes preincubation at 37° C., f-MLP with cytochalasin B, read-out: CI50 (superoxide anion formation, Cytochrome C)
Protocol: Test 5—Inhibition of the Formation of Superoxide anions Induced by f-MLP in Human Whole Blood
Samples of whole blood diluted with PBS Cytochrome C were incubated for 20 minutes at 37° C. with the test compounds or saline before adding the chermotactic agent f-MLP (0.1 μm/l) in the presence of cytochalasin B. After 20 minutes of activation with this agent, the samples were centrifuged and readings were taken of the supernatants with a spectrophotometer to assess the reduction in Cytochrome C. Table 5 reports the concentrations that are effective in inhibiting the loss of Cytochrome C by 50%.

[11] = Toxicity after a single intravenous administration; format: in vivo; details: mouse, in vivo, male CD-1 mice, read-out: DMT (maximum tolerated dose, MTD)
Source text: as §1, §2

[12] = dose of 0.5 mg/Kg i.v. 15 minutes before LPS
[13] = dose of 2 mg/Kg i.v. 15 minutes before LPS
[14] = iv, dose of 0.5 mg/Kg i.v. 15 minutes before LPS
[15] = iv, dose of 2 mg/Kg i.v. 15 minutes before LPS

Compound | % vs controls (release of nitrite-nitrate) [1] [%] | DMNL (maximum non-lethal dose, MNLD) [2] | DMT (maximum tolerated dose, MTD) [2] [mg/kg] | IC50 [3] [µM] | /o vs controls (paw weight, inflammation index) [4] | IC50 [5] [µM] | IC50 [6] [µM] | Mutagenic activity (Mini-Ames test) [7] | % of inhibition of TNF [8, 12] [%] | % of inhibition of TNF [8, 13] [%] | % of inhibition of IL-1β [9, 12] [%] | % of inhibition of IL-1β [9, 13] [%] | IC50 [10] [µM] | MTD [11] [mg/kg] | inhibition at 0.5 mg/kg [8, 14] [%] | inhibition at 2 mg/kg [8, 15] [%] | inhibition at 0.5 mg/kg [9, 14] [%] | inhibition at 2 mg/kg [9, 15] [%] | IC50 ([5]; Platelet) [µM] | IC50 ([6]; Mus musculus) [µM]
C[C@H]1C[C@H]2[C@@H]3CCC4=CC(=O)C=C[C@]4(C)[C@@]3(F)[C@@H](O)C[C@]2(C)[C@@]1(O)C(=O)CO [Betamethasone, reference compound] | 20 |  |  |  |  |  |  |  |  |  |  |  |  |  |  |  |  |  |  | 
CCOC(=O)[C@@H](N)CSCC(O)COc1ccc2c(C)c(CCN(CC)CC)c(=O)oc2c1.Cl.Cl (some centres unmarked) [Compound 201261] | 98 | 200 mg(Kg | 50 | 9 | 86 /o | > 100 | 25.4 |  |  |  |  |  |  |  |  |  |  |  |  | 
C=CCc1cc2c(C)c(CN3CCOCC3)c(=O)oc2c(CC=C)c1OCCCOc1c(CC=C)cc2c(C)c(CN3CCOCC3)c(=O)oc2c1CC=C.Cl.Cl [Compound 203152] | 108 | 200 mg(Kg | 50 | > 80 | 90 /o | > 100 | 13.3 ± 9 | None of the tested compounds (203152, 201273, 201326 and 201330) proved to be mutagenic | 72 | 73 | 64 | 60 | > 100 |  |  |  |  |  |  | 
CCCCC[C@H](O)/C=C/[C@@H]1[C@H]2C/C(=C/CCCC(=O)O)O[C@H]2C[C@H]1O [PG12, reference compound] |  |  |  |  |  | 0.05 |  |  |  |  |  |  |  |  |  |  |  |  |  | 
C[C@H]1C[C@@H]2[C@H]([C@@H](O)C[C@@]3(C)[C@H]2CC[C@]3(O)C(=O)CO)[C@@]2(C)C=CC(=O)C=C12 [Methylprednisolone, reference compound] |  |  |  |  | 56 /o |  |  |  |  |  |  |  |  |  |  |  |  |  |  | 
COc1ccc2c(c1)c(CC(=O)O)c(C)n2C(=O)c1ccc(Cl)cc1 [Indomethacin, reference compound] |  |  |  |  | 57 /o |  |  |  |  |  |  |  |  |  |  |  |  |  |  | 
CCCCC(O)COc1ccc2c(C)c(CCN(CC)CC)c(=O)oc2c1.Cl (centres unmarked) [Compound 201273] | 76 | 100 mg(Kg | 25 | 40.4 ± 13.5 | 67 /o | > 100 | 27.5 ± 5.3 | None of the tested compounds (203152, 201273, 201326 and 201330) proved to be mutagenic | 72 | 84 | 67 | 39 | > 100 |  |  |  |  |  |  | 
CCN(CC)CCc1c(C)c2ccc(OCC(=O)NC3CCCCC3)c(Cl)c2oc1=O.Cl.Cl [Compound 201330] |  | 50 mg(Kg | 25 | 12.6 ± 3.5 | 77 /o | 93 | 12 ± 3.9 | None of the tested compounds (203152, 201273, 201326 and 201330) proved to be mutagenic | 75 | 62 | 33 | 57 | 36 |  |  |  |  |  |  | 
CCCCC(O)COc1ccc2c(C)c(CCN(CC)CC)c(=O)oc2c1Cl.Cl (centres unmarked) [Compound 201326] | 62 | 50 mg(Kg | 6.25 | 23 ± 2 | 58 /o | 78 | 10.5 ± 3 | None of the tested compounds (203152, 201273, 201326 and 201330) proved to be mutagenic | 85 | 77 | 40 | 62 | > 100 |  |  |  |  |  |  | 
CCOC(=O)COc1ccc2c(C)c(CCN(CC)CC)c(=O)oc2c1Cl [Compound 201006, Cloricromene, reference compound] | 99 | 12.5 mg(Kg |  | 78.6 ± 10 | 79 /o |  |  |  |  |  |  |  | 52 | 6.25 | 9 | 30 | 45 | 28 | 35 | 57.9 ± 20
